Laboratory results reported in US20110105514A1, “5,6,7,8-TETRAHYDRO-IMIDAZO[1,5-A]PYRAZINE COMPOUNDS” (priority 2008, published 2011).
Read-outs that look alike come from different tables or passages of the source.

Key:
human orexin-1 receptor = biological target: T1, human orexin-1 receptor (Homo sapiens, UniProt O43613); assay: FLIPR calcium assay of orexin receptor antagonistic activity, CHO cells expressing the human orexin-1 receptor; format: cell-based; conditions: 3 nM orexin-A as agonist
T1 construct: expressed in transfected cells; host or cells: Chinese hamster ovary (CHO) cells
T1 sequence (O43613 1-425): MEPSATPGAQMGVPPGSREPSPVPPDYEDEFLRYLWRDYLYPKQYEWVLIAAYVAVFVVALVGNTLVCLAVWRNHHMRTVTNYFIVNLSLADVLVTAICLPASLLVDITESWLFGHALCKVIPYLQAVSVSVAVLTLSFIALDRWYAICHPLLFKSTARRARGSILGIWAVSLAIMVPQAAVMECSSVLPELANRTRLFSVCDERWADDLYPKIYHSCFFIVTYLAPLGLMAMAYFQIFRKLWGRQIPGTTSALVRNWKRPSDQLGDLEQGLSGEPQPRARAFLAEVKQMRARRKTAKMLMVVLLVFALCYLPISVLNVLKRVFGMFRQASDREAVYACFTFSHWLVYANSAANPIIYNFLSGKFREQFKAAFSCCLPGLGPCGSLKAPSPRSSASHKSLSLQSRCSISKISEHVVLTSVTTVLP
Procedure: (§1) The orexin receptor antagonistic activity of the compounds of formula (I) is determined in accordance with the following experimental method.
(§2) Chinese hamster ovary (CHO) cells expressing the human orexin-1 receptor and the human orexin-2 receptor, respectively, are grown in culture medium (Ham F-12 with L-Glutamine) containing 300 μg/ml G418, 100 U/ml penicillin, 100 μg/ml streptomycin and 10% heat inactivated fetal calf serum (FCS). The cells are seeded at 20′000 cells/well into 384-well black clear bottom sterile plates (Greiner). The seeded plates are incubated overnight at 37° C. in 5% CO2.
(§3) Human orexin-A as an agonist is prepared as 1 mM stock solution in MeOH:water (1:1), diluted in HBSS containing 0.1% bovine serum albumin (BSA), NaHCO3: 0.375 g/l and 20 mM HEPES for use in the assay at a final concentration of 3 nM.
(§4) Antagonists are prepared as 10 mM stock solution in DMSO, then diluted in 384-well plates using DMSO followed by a transfer of the dilutions into in HBSS containing 0.1% bovine serum albumin (BSA), NaHCO3: 0.375 g/l and 20 mM HEPES. On the day of the assay, 50 μl of staining buffer (HBSS containing 1% FCS, 20 mM HEPES, NaHCO3: 0.375 g/l, 5 mM probenecid (Sigma) and 3 μM of the fluorescent calcium indicator fluo-4 AM (1 mM stock solution in DMSO, containing 10% pluronic) is added to each well. The 384-well cell-plates are incubated for 50 min at 37° C. in 5% CO2 followed by equilibration at RT for 30-120 min before measurement.
(§5) Within the Fluorescent Imaging Plate Reader (FLIPR Tetra, Molecular Devices), antagonists are added to the plate in a volume of […], incubated for 10 min and finally […] of agonist is added. Fluorescence is measured for each well at 1 second intervals, and the height of each fluorescence peak is compared to the height of the fluorescence peak induced by 3 nM orexin-A with vehicle in place of antagonist. For each antagonist, the IC50 value (the concentration of compound needed to inhibit 50% of the agonistic response) is determined and may be normalized using the obtained IC50 value of a on-plate reference compound (normalized values in Table 1 indicated by an asterisk*).
(§6) The calculated IC50 values of the compounds may fluctuate depending on the daily cellular assay performance. Fluctuations of this kind are known to those skilled in the art.

human orexin-2 receptor = biological target: T2, human orexin-2 receptor (Homo sapiens, UniProt O43614); assay: FLIPR calcium assay of orexin receptor antagonistic activity, CHO cells expressing the human orexin-2 receptor; format: cell-based; conditions: 3 nM orexin-A as agonist
T2 construct: expressed in transfected cells; host or cells: Chinese hamster ovary (CHO) cells
T2 sequence (O43614 1-444): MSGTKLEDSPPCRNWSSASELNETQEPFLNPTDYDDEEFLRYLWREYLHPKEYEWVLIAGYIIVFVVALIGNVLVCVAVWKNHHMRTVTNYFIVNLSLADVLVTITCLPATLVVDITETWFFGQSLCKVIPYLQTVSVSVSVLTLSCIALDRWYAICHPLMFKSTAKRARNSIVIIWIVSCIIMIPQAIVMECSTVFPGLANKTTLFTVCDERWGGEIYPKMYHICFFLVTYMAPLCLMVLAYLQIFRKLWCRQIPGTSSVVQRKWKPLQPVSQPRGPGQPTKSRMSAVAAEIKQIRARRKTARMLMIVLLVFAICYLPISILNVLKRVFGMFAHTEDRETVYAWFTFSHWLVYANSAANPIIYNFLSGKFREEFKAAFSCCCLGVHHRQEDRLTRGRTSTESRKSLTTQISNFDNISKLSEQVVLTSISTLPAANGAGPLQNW
Procedure: as §1, §2, §3, §4, §5, §6

rat [1] = conditions: cited from earlier work
rat [2] = conditions: cited from earlier work; remark: listed apart in the source
rat [3] = conditions: rat model; cited from earlier work
[4] = value not normalized, read-out: OX1 IC50
[5] = value not normalized, read-out: OX2 IC50
[6] = normalized using IC50 of on-plate reference compound (asterisk), read-out: OX1 IC50 (in nM), normalized value
[7] = normalized using IC50 of on-plate reference compound (asterisk), read-out: OX2 IC50 (in nM), normalized value

SMILES | IC50 (human orexin-1 receptor; [4]) | IC50 (human orexin-2 receptor; [5]) | IC50 (human orexin-1 receptor; [6]) | IC50 (human orexin-2 receptor; [7]) | other results
CNC(=O)[C@@H](c1ccccc1)N1CCn2c(SC)nc(Cl)c2[C@@H]1CCc1ccc(C(F)(F)F)c(F)c1F [Example 8, (R)-2′-{1-chloro-(8)-8-[2-(2,3-difluoro-4-trifluoromethyl-phenyl)-ethyl]-3-methylsulfanyl-5,6-dihydro-8H-imidazo[1,5-a]pyrazin-7-yl}-N-methyl-2′-phenyl-acetamide] | 56 nM | 21 nM |  |  | 
CNC(=O)[C@@H](c1ccccc1)N1CCc2cc(OC)c(OC)cc2[C@@H]1CCc1ccc(C(F)(F)F)cc1 [(2R)-2-{(1S)-6,7-dimethoxy-1-[2-(4-trifluoromethyl-phenyl)-ethyl]-3,4-dihydro-1H-isoquinolin-2-yl}-N-methyl-2-phenyl-acetamide] |  |  |  |  | activity in post-traumatic stress disorder model (rat [1]): active; alertness (active wake and locomotion) (rat [2]): decrease alertness; time spent in both REM and NREM sleep (rat [2]): dose-dependently increase the time spent in both REM and NREM sleep; memory function (rat [3]): enhance memory function
CNC(=O)[C@@H](c1ccccc1)N1CCn2c(C3CC3)nc(Cl)c2[C@@H]1CCc1ccc(Cl)c(F)c1 [Example 3, (R)-2′-{1-chloro-(S)-8-[2-(4-chloro-3-fluoro-phenyl)-ethyl]-3-cyclopropyl-5,6-dihydro-8H-imidazo[1,5-a]pyrazin-7-yl}-N-methyl-2′-phenyl-acetamide] | 43 nM | 11 nM |  |  | 
CCOc1nc(C(F)(F)F)c2n1CCN([C@@H](C(=O)NC)c1ccccc1)[C@H]2CCc1ccc(C(F)(F)F)cc1 [Example 21, (R)-2′-{3-ethoxy-1-trifluoromethyl-(S)-8-[2-(4-trifluoromethyl-phenyl)-ethyl]-5,6-dihydro-8H-imidazo[1,5-a]pyrazin-7-yl}-N-methyl-2′-phenyl-acetamide] |  |  | 3540 nM | 63 nM | 
CNC(=O)[C@@H](c1ccccc1)N1CCn2c(C3CC3)nc(Cl)c2[C@@H]1CCc1cccc(C(F)(F)F)c1 [Example 26, (R)-2′-{1-chloro-3-cyclopropyl-(S)-8-[2-(3-trifluoromethyl-phenyl)-ethyl]-5,6-dihydro-8H-imidazo[1,5-a]pyrazin-7-yl}-N-methyl-2′-phenyl-acetamide] |  |  | 91 nM | 7 nM | 
CCc1nc(Cl)c2n1CCN([C@@H](C(=O)NC)c1ccccc1)[C@H]2CCc1cccc(OC(F)F)c1 [Example 11, (R)-2′-{1-chloro-(S)-8-[2-(3-difluoromethoxy-phenyl)-ethyl]-3-ethyl-5,6-dihydro-8H-imidazo[1,5-a]pyrazin-7-yl}-N-methyl-2′-phenyl-acetamide] | 45 nM | 2 nM |  |  | 
CCc1nc(C2CC2)n2c1C(CCc1ccc(C(F)(F)F)c(F)c1)N(C(C(=O)NC)c1ccccc1)CC2 [Example 17, (R)-2′-{3-cyclopropyl-1-ethyl-(8)-8-[2-(3-fluoro-4-trifluoromethyl-phenyl)-ethyl]-5,6-dihydro-8H-imidazo[1,5-a]pyrazin-7-yl}-N-methyl-2′-phenyl-acetamide] |  |  | 384 nM | 8 nM | 
CNC(=O)[C@@H](c1ccccc1)N1CCn2c(C(F)(F)F)nc(C)c2[C@@H]1CCc1ccc(C(F)(F)F)cc1 [Example 13a, N-methyl-(R)-2′-{1-methyl-3-trifluoromethyl-(S)-8-[2-(4-trifluoromethyl-phenyl)-ethyl]-5,6-dihydro-8H-imidazo[1,5-a]pyrazin-7-yl}-2′-phenyl-acetamide] | 259 nM | 8 nM |  |  | 
CCc1nc(C(F)(F)F)n2c1[C@H](CCc1ccc(C(F)(F)F)cc1)N([C@@H](C(=O)NC)c1ccccc1)CC2 [Example 28, (R)-2′-{1-ethyl-3-trifluoromethyl-(8)-8-[2-(4-trifluoromethyl-phenyl)-ethyl]-5,6-dihydro-8H-imidazo[1,5-a]pyrazin-7-yl}-N-methyl-2′-phenyl-acetamide] |  |  | 505 nM | 13 nM | 
CCc1nc(S(C)(=O)=O)c2n1CCN([C@@H](C(=O)NC)c1ccccc1)[C@H]2CCc1ccc(C(F)(F)F)cc1 [Example 23, (R)-2′-{3-ethyl-1-methanesulfonyl-(S)-8-[2-(4-trifluoromethyl-phenyl)-ethyl]-5,6-dihydro-8H-imidazo[1,5-a]pyrazin-7-yl}-N-methyl-2′-phenyl-acetamide] |  |  | 1680 nM | 25 nM | 
